Test results from patent publication US7776828B2, “Radiation therapy methods” (University of Southern California, priority 1998, dated 2010).
Entries after “also recorded” stand apart in the source; their conditions may differ. Non-standard residues stand in square brackets, D forms with d. No end group written: not given here. Phe(4-NH2) = Nc1ccc(C[C@H](N)C(=O)O)cc1

Columns and labels:
[1] = Effectiveness testing of AII fragments (test not specified); details: test not described
AT2 receptor = details: cited from earlier work
[2] = system: chick chorioallantoic membrane; details: chick chorioallantoic membrane model; cited from earlier work
Female C57B1/6 mice [3] = experiment: Blood cell recovery after irradiation (white blood cells, megakaryocytes, monocytes, neutrophils, lymphocytes); type: in vivo
Protocol: (§1) Female C57B1/6 mice (Jackson Labs, Bar Harbor, Me.) were irradiated with 600 cGy total body irradiation. Subcutaneous injection with either AII (10 μg/kg/day or 100 μg/kg/day) or saline (placebo) was initiated two days before (−day 2), on the day of (day 0) or 2 days after (+day 2) irradiation and continued until the animals succumbed to the irradiation or were necropsied. At various times after irradiation, the mice were anaesthetized with Metofane (Pittman-Moore Animal Health, NZ) and bled via the retro-orbital sinus. Red blood cells were lysed with 0.3% acetic acid and the number of white blood cells was determined by counting with a hemacytometer. […] Furthermore, AII administration at all time periods tested increased the number of circulating white blood cells (FIGS. 4-6).

wound tissue = details: application to wound tissue; cited from earlier work
C57B1/6 mice = experiment: Survival and white blood cell number of mice receiving bone marrow transplantation after lethal irradiation; type: in vivo
Protocol: Donor C57B1/6 mice (female, 6-8 weeks old) were irradiated with 600 cGy total body irradiation. Starting on the day of irradiation, the mice received either saline (0.1 ml) or 20 μg/ml angiotensin II (0.1 ml, 100 μg/kg) subcutaneously for fourteen days. At the end of this period, the bone marrow was harvested from the femur by flushing and the number of viable nucleated cells determined by counting under a light microscope on a hemacytometer in the presence of trypan blue.
These donor bone marrow cells were then injected intravenously into recipient mice (female C57B1/6, 6-8 weeks old) that had been lethally irradiated (900 cGy total body irradiation) at two concentrations: 1×10^6 or 1×10^5 cells per mouse. After injection, the recipient mice received either saline or 100 μg/kg AII subcutaneously until death or termination. The study design in its entirety is as follows:
The survival of the mice and the number of circulating white blood cells were measured as a function of time post-bone marrow transplantation.

rabbit corneal eye = rabbit corneal eye model; cited from earlier work
[4] = system: cultured cells that are involved in wound repair; details: cited from earlier work
Female C57B1/6 mice [5] = experiment: Post-irradiation mouse mortality/survival (600 cGy total body irradiation); type: in vivo
Protocol: as §1

[6] = recipients 900 cGy, AII 100 μg/kg s.c. to donor and/or recipient

## His-Pro-Phe (HPF) [AII(6-8)]
[1]
  effectiveness: not to be effective

## Asp-Arg-Val-Tyr-Ile-Xaa-Pro-Phe (DRVYI[Phe(4-NH2)]PF) [p-aminophenylalanine6-AII, reference compound]
AT2 receptor; compared with AT2 antagonists in the experimental models tested
  binding characteristics: comparable to AT2 antagonists

## Asp-Arg-Val-Tyr-Ile-His-Pro-Phe (DRVYIHPF) [AII]
[2]
  angiogenic activity: angiogenic
Female C57B1/6 mice [3]; after 600 cGy irradiation, FIGS. 7-9
  number of megakaryocytes: increased
Female C57B1/6 mice [3]; after 600 cGy irradiation, FIGS. 10-12
  number of monocytes: increased
Female C57B1/6 mice [3]; after 600 cGy irradiation, FIGS. 13-15
  number of neutrophils: increased
Female C57B1/6 mice [3]; after 600 cGy irradiation, FIGS. 16-18
  number of lymphocytes: increased
Female C57B1/6 mice [3]; all time periods tested (-day 2, day 0, +day 2), 600 cGy, FIGS. 4-6
  number of circulating white blood cells: increased
Wound tissue
  rate of wound healing: significantly increases
C57B1/6 mice; [6]
  number of circulating white blood cells post-bone marrow transplantation: increased
  survival post-bone marrow transplantation: increased
C57B1/6 mice; treatment of both the donor bone marrow cells and the recipient mice with AII
  benefit (survival and white blood cell number): greatest benefit
Rabbit corneal eye
  angiogenic activity: angiogenic
[4]
  mitogenesis and chemotaxis: increases
  release of growth factors and extracellular matrices: increases
Female C57B1/6 mice [5]; AII 10 or 100 μg/kg/day s.c. starting on the day of irradiation (day 0), FIG. 2
  survival after irradiation: substantially increased survival
Female C57B1/6 mice [5]; AII 10 or 100 μg/kg/day s.c. starting two days after irradiation (+day 2), FIG. 3
  survival after irradiation: substantially increased survival
Female C57B1/6 mice [5]; AII 10 or 100 μg/kg/day s.c. starting two days prior to irradiation (-day 2), FIG. 1
  protection against mortality resulting from irradiation: did not protect against mortality
AT2 receptor; selectivity AT2 over AT1
  affinity for AT2 than AT1: 100 times

## Tyr-Ile-His-Pro-Phe (YIHPF) [AII(4-8)]
[1]
  effectiveness: not to be effective; also recorded: ineffective
